Key:
[1] = system: ATase1 mRNA; assay: Real-time quantitative PCR of ATase1 mRNA after ceramide treatment; format: cell-based, human; settings: H4 and SH-SY5Y cells; C6-ceramide 10 μM; seen as early as 4 hours, still evident after 4 days
Description: (§1) Chinese Hamster Ovary (CHO) cells were grown in DMEM (Gibco BRL) supplemented with 10% fetal bovine serum (FBS) and penicillin/streptomycin (Mediatech, Inc., Herndon, Va.) as described before (Puglielli et al., 2001, Nat. Cell Biol. 3: 905-912; Puglielli et al., 2003, J. Biol. Chem. 278: 19777-19783). Cells were maintained in a humidified atmosphere with 5% CO2. For ceramide treatment, C6-ceramide (simply called “ceramide”) was administered in the absence of serum and at the final concentration of 10 μM; treatment was started when cells were ˜80% confluent and carried out for the time specified. […]
(§2) RNA quantification was performed by real-time PCR in an ABI PRISM® 7000 Sequence Detection System using SYBR® Green PCR Master Mix (Applied Biosystems). […] Delta-delta Ct values were normalized with those obtained from the amplification of GAPDH and were expressed as fold-change over control. […]
(§3) The 4-hour treatment was performed in the presence of 0.5% fetal bovine serum whereas the 4-days treatment was performed in the presence of 10% fetal bovine serum, as previously described (Puglielli et al., 2003, J. Biol. Chem. 278: 19777-19783; Costantini et al., 2007, Biochem. J. 407: 383-395)). Results are expressed as fold ±S.D. of control (no treatment). […] Results are expressed as fold ±S.D. of age-matched controls.

[2] = system: ATase2 mRNA; assay: Real-time quantitative PCR of ATase2 mRNA after ceramide treatment; format: cell-based, human; settings: H4 and SH-SY5Y cells; C6-ceramide 10 μM; seen as early as 4 hours, still evident after 4 days
Description: as §1, §2, §3

[3] = system: BACE1; settings: different cell lines; Costantini et al., 2005; cited from earlier work

In the case of `CCCCCCCCCCCCC/C=C/[C@@H](O)[C@H](CO)NC(=O)CCCCC` [ceramide, C6-ceramide], the “mRNA levels of ATase1 (transcription)” value [1] is listed as “marked activation of transcription”, the “mRNA levels of ATase2 (transcription)” value [2] is listed as “marked activation of transcription” and the “acetylation and stabilization of BACE1” value [3] is listed as “increased acetylation and stabilization of BACE1”.
